Where two headings read alike, the source gives them in different places.
What was measured:
panel of kinases = assay: Nanosyn kinase panel profiling (panels of 29, 220, 230, 250 kinases), whole panel; assay type: biochemical; conditions: for activity against any of the kinases tested: panel of 29 selected kinases
Description: “Inhibiting kinase activity” means to decrease the production of an phosphor-peptide by a particular kinase that can be separated by analytical techniques. […] Profiling data in this application were determined using these techniques at Nanosyn Inc. IC50 data were provided by Reaction Biology Inc using a P33 radiolabeled kinase assay.
These compounds were profiled against a panel of 230 kinases (Nanosyn Inc.).
A total of 15 new inhibitors were designed, prepared, and evaluated against a panel of 29 selected kinases in order to explore the applicability, SAR trends, and the tunability of this scaffold that could be imposed but this unique geometry, Table 21. Inhibitors I-1 to 1-12 all retained the 2-CF3-5-(4-F-phenyl) imidazole-4-carboxamide scaffold previously described (Deitrich, 2010), but explored different Hinge-Gatekeeper Motifs (HGM).
To further test the breadth of applicability and ability to achieve selectivity with inhibitors that share this scaffold geometry, I-11 and I-12 were evaluated against a larger panel of 220 high interest kinases, Table-23.

wild type B-Raf = wild type B-Raf (Homo sapiens, UniProt P15056); assay: LanthaScreen assay, IC50; assay type: biochemical
Description: (§1) To test both our binding mode hypothesis and to see if these structural differences could be taken exploited to impart selectivity and potency improvements, I-13, in which the lipophilic 2-trifluoromethy substituent on imidazole ring of inhibitor KIN-035, was replaced by the polar 2-methylsulfonyl substitutent. […] To address this issue, real time kinetic experiments were performed.

BRAF(V600E) [1] = biological target: T1, BRAF(V600E) (Homo sapiens, UniProt P15056, V600E); assay: LanthaScreen assay, side by side IC50 comparison; assay type: biochemical
Description: as §1

BRAF(V600E) [2] = biological target: T1, BRAF(V600E); assay: Real time kinetic experiments; assay type: biochemical
Description: as §1

BRAF = biological target: T2, BRAF (Homo sapiens, UniProt P15056); conditions: 1 μM, duplicate, without preincubation; cited from earlier work
T2 construct: literature Ambit Biosciences

BRAF(V600E) [3] = biological target: T1, BRAF(V600E); design: literature Ambit Biosciences; conditions: 1 μM, duplicate, without preincubation; cited from earlier work
KIT = KIT (Homo sapiens, UniProt P10721); conditions: 1 μM, duplicate, without preincubation; cited from earlier work
PRKCE = biological target: T3, PRKCE (Homo sapiens, UniProt Q02156); conditions: 1 μM, duplicate, without preincubation; cited from earlier work
T3 construct: literature Ambit Biosciences
T3 sequence (Q02156 1-737): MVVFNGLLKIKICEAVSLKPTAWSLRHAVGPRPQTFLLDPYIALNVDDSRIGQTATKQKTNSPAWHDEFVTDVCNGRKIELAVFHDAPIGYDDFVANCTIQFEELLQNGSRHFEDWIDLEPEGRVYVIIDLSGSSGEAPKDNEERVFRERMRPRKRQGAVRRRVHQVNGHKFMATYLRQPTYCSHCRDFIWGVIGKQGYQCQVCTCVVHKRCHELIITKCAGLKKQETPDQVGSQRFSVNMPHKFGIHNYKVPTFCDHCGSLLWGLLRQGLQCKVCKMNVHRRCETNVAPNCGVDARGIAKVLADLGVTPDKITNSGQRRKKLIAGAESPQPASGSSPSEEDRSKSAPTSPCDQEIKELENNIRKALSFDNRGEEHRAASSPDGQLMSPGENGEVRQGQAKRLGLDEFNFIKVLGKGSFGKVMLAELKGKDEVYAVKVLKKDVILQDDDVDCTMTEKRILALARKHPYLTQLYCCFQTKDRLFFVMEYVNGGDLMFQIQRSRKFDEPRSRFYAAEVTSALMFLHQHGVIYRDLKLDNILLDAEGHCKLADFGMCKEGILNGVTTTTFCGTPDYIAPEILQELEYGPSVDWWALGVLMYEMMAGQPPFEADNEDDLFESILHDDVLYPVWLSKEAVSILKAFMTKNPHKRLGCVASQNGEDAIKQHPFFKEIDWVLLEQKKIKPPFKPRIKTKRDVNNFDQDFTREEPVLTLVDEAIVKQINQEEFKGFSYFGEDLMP

p38-beta = biological target: T4, p38-beta (Homo sapiens, UniProt Q15759); conditions: 1 μM, duplicate, without preincubation; cited from earlier work
T4 construct: literature Ambit Biosciences

CSF1R = biological target: T5, CSF1R (Homo sapiens, UniProt P07333); conditions: 1 μM, duplicate, without preincubation; cited from earlier work
T5 construct: literature Ambit Biosciences

JAK2 (catalytic) = biological target: T6, JAK2 (catalytic) (Homo sapiens, UniProt O60674); conditions: 1 μM, duplicate, without preincubation; cited from earlier work
T6 construct: catalytic; literature Ambit Biosciences

DCAMKL1 = biological target: T7, DCAMKL1 (Homo sapiens, UniProt O15075); conditions: 1 μM, duplicate, without preincubation; cited from earlier work
T7 construct: literature Ambit Biosciences
T7 sequence (O15075 1-740): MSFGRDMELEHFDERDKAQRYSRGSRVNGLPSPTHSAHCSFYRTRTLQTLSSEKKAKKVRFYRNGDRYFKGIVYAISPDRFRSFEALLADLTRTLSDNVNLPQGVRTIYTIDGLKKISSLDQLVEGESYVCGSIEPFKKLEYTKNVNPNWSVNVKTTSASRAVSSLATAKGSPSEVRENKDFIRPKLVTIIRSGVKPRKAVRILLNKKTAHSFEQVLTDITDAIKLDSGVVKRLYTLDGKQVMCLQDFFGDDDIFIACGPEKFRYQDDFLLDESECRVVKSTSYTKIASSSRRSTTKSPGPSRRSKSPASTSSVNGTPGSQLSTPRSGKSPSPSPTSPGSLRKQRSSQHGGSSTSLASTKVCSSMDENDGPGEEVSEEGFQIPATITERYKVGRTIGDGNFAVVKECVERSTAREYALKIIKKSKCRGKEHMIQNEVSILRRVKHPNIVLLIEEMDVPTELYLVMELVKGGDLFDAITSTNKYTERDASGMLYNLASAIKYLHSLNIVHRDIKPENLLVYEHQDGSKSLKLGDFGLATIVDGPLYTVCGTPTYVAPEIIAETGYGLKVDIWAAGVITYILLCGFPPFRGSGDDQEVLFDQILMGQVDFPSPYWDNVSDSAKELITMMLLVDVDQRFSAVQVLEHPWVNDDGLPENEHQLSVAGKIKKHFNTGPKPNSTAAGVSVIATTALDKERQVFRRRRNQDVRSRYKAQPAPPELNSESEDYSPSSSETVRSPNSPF

BTK = biological target: T8, BTK (Homo sapiens, UniProt Q06187); conditions: 1 μM, duplicate, without preincubation; cited from earlier work
T8 construct: literature Ambit Biosciences

PLK4 = biological target: T9, PLK4 (Homo sapiens, UniProt O00444); conditions: 1 μM, duplicate, without preincubation; cited from earlier work
T9 construct: literature Ambit Biosciences
T9 sequence (O00444 1-970): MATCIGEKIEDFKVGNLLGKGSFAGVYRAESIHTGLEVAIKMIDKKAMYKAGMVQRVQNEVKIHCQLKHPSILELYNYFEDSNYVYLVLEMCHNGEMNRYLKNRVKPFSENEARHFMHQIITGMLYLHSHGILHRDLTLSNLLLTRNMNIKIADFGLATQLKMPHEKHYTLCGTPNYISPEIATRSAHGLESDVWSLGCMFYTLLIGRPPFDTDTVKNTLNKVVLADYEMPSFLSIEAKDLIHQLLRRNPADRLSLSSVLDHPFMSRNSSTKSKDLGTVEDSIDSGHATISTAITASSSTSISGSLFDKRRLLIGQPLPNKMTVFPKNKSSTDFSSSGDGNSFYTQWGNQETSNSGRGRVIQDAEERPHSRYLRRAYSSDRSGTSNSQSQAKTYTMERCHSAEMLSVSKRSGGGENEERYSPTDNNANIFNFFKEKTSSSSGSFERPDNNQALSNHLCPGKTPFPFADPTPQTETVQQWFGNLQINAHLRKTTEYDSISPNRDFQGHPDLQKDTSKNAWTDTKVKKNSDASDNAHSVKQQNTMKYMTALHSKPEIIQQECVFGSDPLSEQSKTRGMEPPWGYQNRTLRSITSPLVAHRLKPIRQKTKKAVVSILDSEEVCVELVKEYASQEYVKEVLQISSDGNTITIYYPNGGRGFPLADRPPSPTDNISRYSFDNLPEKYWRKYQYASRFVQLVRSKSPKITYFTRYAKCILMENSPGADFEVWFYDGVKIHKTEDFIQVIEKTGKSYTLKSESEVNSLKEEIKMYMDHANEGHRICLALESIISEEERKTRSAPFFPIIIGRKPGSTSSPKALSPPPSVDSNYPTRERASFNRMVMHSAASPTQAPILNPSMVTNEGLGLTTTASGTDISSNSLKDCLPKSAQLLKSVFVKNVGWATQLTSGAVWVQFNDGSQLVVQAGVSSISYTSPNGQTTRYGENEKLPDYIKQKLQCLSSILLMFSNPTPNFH

ULK2 = biological target: T10, ULK2 (Homo sapiens, UniProt Q8IYT8); conditions: 1 μM, duplicate, without preincubation; cited from earlier work
T10 construct: literature Ambit Biosciences

CDK11 = biological target: T11, CDK11 (Homo sapiens, UniProt Q9BWU1); conditions: 1 μM, duplicate, without preincubation; cited from earlier work
T11 construct: literature Ambit Biosciences

IKK-beta = biological target: T12, IKK-beta (Homo sapiens, UniProt O14920); conditions: 1 μM, duplicate, without preincubation; cited from earlier work
T12 construct: literature Ambit Biosciences

PDGFRA = biological target: T13, PDGFRA (Homo sapiens, UniProt P16234); conditions: 1 μM, duplicate, without preincubation; cited from earlier work
T13 construct: literature Ambit Biosciences

CDK7 = biological target: T14, CDK7 (Homo sapiens, UniProt P50613); conditions: 1 μM, duplicate, without preincubation; cited from earlier work
T14 construct: literature Ambit Biosciences

p38-alpha = biological target: T15, p38-alpha (Homo sapiens, UniProt Q16539); conditions: 1 μM, duplicate, without preincubation; cited from earlier work
T15 construct: literature Ambit Biosciences

PDGFRB = biological target: T16, PDGFRB (Homo sapiens, UniProt P09619); conditions: 1 μM, duplicate, without preincubation; cited from earlier work
T16 construct: literature Ambit Biosciences

RAF1 = biological target: T17, RAF1 (Homo sapiens, UniProt P04049); conditions: 1 μM, duplicate, without preincubation; cited from earlier work
T17 construct: literature Ambit Biosciences

T1 sequence (P15056 whole entry V600E): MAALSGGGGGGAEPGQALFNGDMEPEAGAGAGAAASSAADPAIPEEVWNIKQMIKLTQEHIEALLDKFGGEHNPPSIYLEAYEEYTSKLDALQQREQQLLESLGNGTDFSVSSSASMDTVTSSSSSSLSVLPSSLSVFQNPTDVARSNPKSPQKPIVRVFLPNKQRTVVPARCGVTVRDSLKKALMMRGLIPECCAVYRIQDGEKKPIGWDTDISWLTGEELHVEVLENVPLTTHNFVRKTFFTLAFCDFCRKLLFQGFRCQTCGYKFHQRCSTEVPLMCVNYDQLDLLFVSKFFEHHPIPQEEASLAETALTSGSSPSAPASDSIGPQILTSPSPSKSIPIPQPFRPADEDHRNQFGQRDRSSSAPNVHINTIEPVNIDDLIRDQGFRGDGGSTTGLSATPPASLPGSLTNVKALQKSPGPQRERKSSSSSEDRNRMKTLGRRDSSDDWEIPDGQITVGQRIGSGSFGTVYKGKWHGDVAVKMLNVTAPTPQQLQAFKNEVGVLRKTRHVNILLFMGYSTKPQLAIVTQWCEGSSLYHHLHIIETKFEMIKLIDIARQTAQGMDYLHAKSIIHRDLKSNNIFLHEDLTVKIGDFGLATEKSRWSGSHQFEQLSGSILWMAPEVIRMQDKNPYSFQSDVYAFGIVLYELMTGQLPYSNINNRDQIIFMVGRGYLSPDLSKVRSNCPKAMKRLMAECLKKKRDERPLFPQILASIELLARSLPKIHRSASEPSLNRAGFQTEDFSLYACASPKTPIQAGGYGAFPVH
T13 sequence (P16234 24-1089): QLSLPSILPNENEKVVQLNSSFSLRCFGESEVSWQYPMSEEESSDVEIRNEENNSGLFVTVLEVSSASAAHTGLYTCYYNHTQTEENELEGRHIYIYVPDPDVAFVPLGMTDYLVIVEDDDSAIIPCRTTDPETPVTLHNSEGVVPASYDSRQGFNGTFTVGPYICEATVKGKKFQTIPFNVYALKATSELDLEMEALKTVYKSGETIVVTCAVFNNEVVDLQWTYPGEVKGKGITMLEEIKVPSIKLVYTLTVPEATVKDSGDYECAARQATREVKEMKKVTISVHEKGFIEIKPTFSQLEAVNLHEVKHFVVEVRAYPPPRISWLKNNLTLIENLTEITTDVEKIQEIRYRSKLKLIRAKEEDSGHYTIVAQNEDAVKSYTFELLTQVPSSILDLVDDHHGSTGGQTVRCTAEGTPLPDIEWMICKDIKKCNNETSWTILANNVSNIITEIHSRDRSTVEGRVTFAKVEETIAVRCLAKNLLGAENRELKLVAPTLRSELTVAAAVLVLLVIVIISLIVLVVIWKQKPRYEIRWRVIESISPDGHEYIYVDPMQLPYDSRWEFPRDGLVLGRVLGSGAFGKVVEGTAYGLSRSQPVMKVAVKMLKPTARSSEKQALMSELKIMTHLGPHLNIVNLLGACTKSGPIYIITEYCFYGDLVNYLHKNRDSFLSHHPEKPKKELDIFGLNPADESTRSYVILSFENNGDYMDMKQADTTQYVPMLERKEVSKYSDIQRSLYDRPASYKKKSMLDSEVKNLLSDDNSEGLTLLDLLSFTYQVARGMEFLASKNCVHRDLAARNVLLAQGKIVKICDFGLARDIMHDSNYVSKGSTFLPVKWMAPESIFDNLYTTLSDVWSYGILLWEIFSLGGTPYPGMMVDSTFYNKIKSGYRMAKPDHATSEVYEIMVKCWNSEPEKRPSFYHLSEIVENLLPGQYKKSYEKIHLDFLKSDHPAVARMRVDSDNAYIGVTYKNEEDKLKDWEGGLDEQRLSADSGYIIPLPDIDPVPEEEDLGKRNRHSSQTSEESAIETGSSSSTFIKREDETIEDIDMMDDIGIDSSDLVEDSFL
Chain of KIT (P10721 26-976): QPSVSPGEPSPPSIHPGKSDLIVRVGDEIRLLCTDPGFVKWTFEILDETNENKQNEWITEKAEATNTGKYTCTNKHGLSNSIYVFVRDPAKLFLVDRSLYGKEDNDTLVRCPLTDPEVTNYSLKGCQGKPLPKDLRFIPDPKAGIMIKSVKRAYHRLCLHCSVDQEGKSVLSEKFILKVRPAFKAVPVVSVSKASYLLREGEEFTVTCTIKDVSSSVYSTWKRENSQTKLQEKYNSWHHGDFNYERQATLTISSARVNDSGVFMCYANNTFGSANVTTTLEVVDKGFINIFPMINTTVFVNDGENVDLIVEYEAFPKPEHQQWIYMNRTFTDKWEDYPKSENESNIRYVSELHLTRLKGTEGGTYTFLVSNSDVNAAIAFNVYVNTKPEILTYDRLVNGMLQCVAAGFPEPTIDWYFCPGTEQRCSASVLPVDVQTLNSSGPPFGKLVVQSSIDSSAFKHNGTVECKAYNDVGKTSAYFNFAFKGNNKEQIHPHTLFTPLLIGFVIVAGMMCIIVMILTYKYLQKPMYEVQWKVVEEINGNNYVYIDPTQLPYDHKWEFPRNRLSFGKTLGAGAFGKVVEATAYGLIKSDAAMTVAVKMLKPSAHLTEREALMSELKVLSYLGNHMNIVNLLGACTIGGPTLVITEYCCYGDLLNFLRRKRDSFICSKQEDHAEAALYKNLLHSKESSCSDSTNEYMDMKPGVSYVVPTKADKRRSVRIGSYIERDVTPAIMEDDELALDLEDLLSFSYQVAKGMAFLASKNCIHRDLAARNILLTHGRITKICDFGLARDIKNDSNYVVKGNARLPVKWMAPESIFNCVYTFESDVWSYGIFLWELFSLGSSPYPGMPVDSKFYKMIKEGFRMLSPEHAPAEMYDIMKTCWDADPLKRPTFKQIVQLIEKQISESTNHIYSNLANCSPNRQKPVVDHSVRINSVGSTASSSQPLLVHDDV
T14 sequence (P50613 whole entry): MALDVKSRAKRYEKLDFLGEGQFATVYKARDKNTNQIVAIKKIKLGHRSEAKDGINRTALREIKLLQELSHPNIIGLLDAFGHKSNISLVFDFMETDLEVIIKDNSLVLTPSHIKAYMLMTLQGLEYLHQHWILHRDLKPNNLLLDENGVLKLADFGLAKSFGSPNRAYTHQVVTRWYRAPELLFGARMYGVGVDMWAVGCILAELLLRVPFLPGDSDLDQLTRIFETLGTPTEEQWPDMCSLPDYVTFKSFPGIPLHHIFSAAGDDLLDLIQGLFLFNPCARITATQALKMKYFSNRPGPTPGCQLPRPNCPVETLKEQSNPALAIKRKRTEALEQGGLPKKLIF
T6 sequence (O60674 849-1124 limits assumed): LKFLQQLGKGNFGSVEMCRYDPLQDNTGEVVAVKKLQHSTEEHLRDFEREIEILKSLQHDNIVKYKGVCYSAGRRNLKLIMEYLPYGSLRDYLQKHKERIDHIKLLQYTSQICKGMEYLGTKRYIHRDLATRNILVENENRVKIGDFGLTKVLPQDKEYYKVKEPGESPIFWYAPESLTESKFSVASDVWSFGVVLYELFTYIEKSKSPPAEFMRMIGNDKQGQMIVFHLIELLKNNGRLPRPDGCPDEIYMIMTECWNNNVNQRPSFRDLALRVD
T5 sequence (P07333 20-972): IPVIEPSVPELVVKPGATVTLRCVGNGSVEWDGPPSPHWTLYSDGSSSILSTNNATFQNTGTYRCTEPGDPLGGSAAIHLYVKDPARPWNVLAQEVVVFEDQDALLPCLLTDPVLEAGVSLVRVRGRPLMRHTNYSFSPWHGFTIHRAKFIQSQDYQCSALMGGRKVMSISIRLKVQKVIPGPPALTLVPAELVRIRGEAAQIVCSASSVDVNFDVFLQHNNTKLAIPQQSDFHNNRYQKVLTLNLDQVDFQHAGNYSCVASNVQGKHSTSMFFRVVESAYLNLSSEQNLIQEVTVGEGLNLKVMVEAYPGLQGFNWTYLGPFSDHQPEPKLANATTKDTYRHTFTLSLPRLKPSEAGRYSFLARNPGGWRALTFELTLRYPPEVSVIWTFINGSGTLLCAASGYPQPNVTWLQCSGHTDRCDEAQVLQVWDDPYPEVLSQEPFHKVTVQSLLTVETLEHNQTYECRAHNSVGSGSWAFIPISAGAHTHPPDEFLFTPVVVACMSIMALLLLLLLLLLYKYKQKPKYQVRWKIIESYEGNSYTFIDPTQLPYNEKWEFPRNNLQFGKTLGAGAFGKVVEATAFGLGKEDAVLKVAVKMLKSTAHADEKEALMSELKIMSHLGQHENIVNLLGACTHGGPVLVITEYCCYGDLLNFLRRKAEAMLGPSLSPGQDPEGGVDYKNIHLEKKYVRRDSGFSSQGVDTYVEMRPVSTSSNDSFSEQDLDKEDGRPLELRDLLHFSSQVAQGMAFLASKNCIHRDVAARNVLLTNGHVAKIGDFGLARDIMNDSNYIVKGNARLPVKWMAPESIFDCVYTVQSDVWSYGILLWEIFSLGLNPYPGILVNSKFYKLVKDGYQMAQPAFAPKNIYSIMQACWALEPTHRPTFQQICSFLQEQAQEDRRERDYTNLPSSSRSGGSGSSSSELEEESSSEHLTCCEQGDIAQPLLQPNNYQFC
T8 sequence (Q06187 whole entry): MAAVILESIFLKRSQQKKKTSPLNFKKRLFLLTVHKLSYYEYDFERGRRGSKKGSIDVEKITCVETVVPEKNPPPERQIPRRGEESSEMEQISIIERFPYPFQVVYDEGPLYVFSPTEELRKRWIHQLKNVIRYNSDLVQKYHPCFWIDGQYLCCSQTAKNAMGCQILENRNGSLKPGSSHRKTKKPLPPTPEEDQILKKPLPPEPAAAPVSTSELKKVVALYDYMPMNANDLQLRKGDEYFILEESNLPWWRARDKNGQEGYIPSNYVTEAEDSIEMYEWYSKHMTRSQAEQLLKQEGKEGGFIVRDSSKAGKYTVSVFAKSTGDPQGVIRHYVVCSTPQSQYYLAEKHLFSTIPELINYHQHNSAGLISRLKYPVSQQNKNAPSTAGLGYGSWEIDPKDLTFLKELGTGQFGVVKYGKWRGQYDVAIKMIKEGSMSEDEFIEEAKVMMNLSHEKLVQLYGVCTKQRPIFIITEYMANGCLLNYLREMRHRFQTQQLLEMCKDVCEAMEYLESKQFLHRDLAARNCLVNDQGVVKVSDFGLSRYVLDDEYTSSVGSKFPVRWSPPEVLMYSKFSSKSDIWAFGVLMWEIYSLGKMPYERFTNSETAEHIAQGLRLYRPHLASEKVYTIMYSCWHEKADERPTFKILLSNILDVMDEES
Chain of wild type B-Raf (P15056 whole entry): as the sequence (P15056 whole entry V600E) above, with E600V counted along it

Q: Which results are given for `O=C(Nc1ccc(Oc2ccnc3[nH]c(=O)[nH]c23)cc1)c1nc(C(F)(F)F)[nH]c1-c1ccc(F)cc1` [Inhibitor I-12, 4-(4-{[5-(4-Fluoro-phenyl)-2-trifluoromethyl-3H-imidazole-4-carbonyl]-amino}-phenoxy)-pyridine-2,3-benzimidazolone carboxylic acid methylamide]?
A: number of panel kinases at >25% inhibition (panel of kinases; panel of 220 kinases, 5 μM): 72 kinases; number of panel kinases with greater than 50% inhibition (panel of kinases; panel of 220 kinases, 5 μM): 45 kinases

Q: With `O=C(Nc1ccncc1)c1cc(NC(=O)c2nc(C(F)(F)F)[nH]c2-c2ccc(F)cc2)ccc1Cl` [Inhibitor I-2, 5-(4-Fluoro-phenyl)-2-trifluoromethyl-3H-imidazole-4-carboxylic acid [4-chloro-3-(pyridin-4-ylcarbamoyl)-phenyl]-amide] as the compound, how does the “activity against any of the kinases tested” value (panel of kinases) read?
A: no significant activity

Q: Which results are given for `Cc1ccc(NC(=O)c2nc(S(C)(=O)=O)[nH]c2-c2ccc(F)cc2)cc1Nc1ccc2ncn(C)c(=O)c2c1` [Inhibitor I-13, 3-(3-methyl-4-oxo-3,4-dihydroquinazolin-6-ylamino)-4-methyl-analine, 5-(4-Fluorophenyl)-2-(methylsulfonyl)-1H-imidazole-4-carboxamide]?
A: IC50 (wild type B-Raf): ~500 nM; more potent against the mutant verses wild type B-Raf (BRAF(V600E) [1]; B-Raf(V600E) vs wild type B-Raf): approximately 80 fold; increase in potency vs KIN-0035 (BRAF(V600E) [1]; LanthaScreen assay, IC50 ratio): 10 fold; IC50 (BRAF(V600E) [1]; LanthaScreen assay, side by side comparison): 6.6 nM; change of IC50 value with preincubation (BRAF(V600E) [1]; several hour preincubation period): appeared to decrease over a several hour preincubation period; real time kinetic data with B-Raf(V600E) (BRAF(V600E) [2]): consistent with either extremely tight binding or irreversible inhibition; real time kinetic data with B-Raf(V600E) (BRAF(V600E) [2]; listed as SFE-0013): consistent with extremely tight or irreversible inhibition

Q: Which “selectivity in kinase panel” value (panel of kinases; panel of 220 kinases, 5 μM) does the source give for `Cc1ccc(NC(=O)c2nc(C(F)(F)F)[nH]c2-c2ccc(F)cc2)cc1NC(=O)c1c[nH]c2ncccc12` [Inhibitor I-11, 1H-7-Azaindole-3-carboxylic acid (5-{[5-(4-fluoro-phenyl)-2-trifluoromethyl-3H-imidazole-4-carbonyl]-amino}-2-methyl-phenyl)-amide] here?
A: extremely selective for p38-α

Q: What does the source list for `Cc1ccc(NC(=O)c2[nH]c(C(F)(F)F)nc2-c2ccc(F)c(F)c2)cc1Nc1ccc2ncn(C)c(=O)c2c1` [KIN-057]?
A: inhibition of BRAF (BRAF): XXX (XXX > 75% @ 1 μM); inhibition of BRAF(V600E) (BRAF(V600E) [3]): XXX (XXX > 75% @ 1 μM); inhibition of KIT (KIT): XXX (XXX > 75% @ 1 μM); inhibition of PRKCE (PRKCE): X (X > 25% @ 1 μM); inhibition of p38-beta (p38-beta): X (X > 25% @ 1 μM); inhibition of CSF1R (CSF1R): X (X > 25% @ 1 μM); inhibition of JAK2 (catalytic) (JAK2 (catalytic)): X (X > 25% @ 1 μM); inhibition of DCAMKL1 (DCAMKL1): X (X > 25% @ 1 μM); inhibition of BTK (BTK): X (X > 25% @ 1 μM); inhibition of PLK4 (PLK4): X (X > 25% @ 1 μM); inhibition of ULK2 (ULK2): X (X > 25% @ 1 μM); inhibition of CDK11 (CDK11): XX (XX > 50% @ 1 μM); inhibition of IKK-beta (IKK-beta): X (X > 25% @ 1 μM); inhibition of PDGFRA (PDGFRA): X (X > 25% @ 1 μM); inhibition of CDK7 (CDK7): X (X > 25% @ 1 μM); inhibition of p38-alpha (p38-alpha): XXX (XXX > 75% @ 1 μM); inhibition of PDGFRB (PDGFRB): XXX (XXX > 75% @ 1 μM); inhibition of RAF1 (RAF1): XXXX (XXXX > 90% @ 1 μM)

Q: For `O=C(Nc1ccccn1)c1cc(NC(=O)c2nc(C(F)(F)F)[nH]c2-c2ccc(F)cc2)ccc1Cl` [Inhibitor I-1, 5-(4-Fluoro-phenyl)-2-trifluoromethyl-3H-imidazole-4-carboxylic acid [4-chloro-3-(pyridin-2-ylcarbamoyl)-phenyl]-amide], which “activity against any of the kinases tested” value (panel of kinases) is on record?
A: no significant activity

Reference: patent US9833455B2, “Preparation and methods of use for ortho-aryl 5-membered heteroaryl-carboxamide containing multi-targeted kinase inhibitors” (Spacefill Enterprises LLC, priority 2011, dated 2017)
